89 molecules from a melting point compilation (Tetko et al.; mined from patent text by program, amines drawn as free bases though some values may be those of a salt) can be followed below.

A value given as a limit tells only on which side of the number the result lay.

As usually defined, the melting point is the temperature of the solid-liquid transition.

The molecule `CC1(C(=O)Nc2ccc(OC(=O)Cc3cccs3)c(Cl)c2Cl)CCCCC1` gave a melting point of 58 °C.

On to `CN1CCN(CC(=O)NN)CC1`, for which the melting point was 87 to 89 °C.

For `CCOc1cccc(-c2cc(F)c(NC(=O)c3ccccc3CO)c(F)c2)c1`, the melting point fell in the range of 94.8 to 99.1 °C.

Turning to `O=C(N1CCC(n2ccc3ccccc32)CC1)C(F)(F)F`, the melting point lay in the range of 130 to 132 °C.

The molecule `CN1CCC(c2nc(-c3ccncc3)c(-c3ccc(F)cc3)[nH]2)CC1` had a melting point of 259 to 261 °C.

The molecule `CC(C)(C)OC(=O)N1C(=O)C(Br)=C(c2cn(C(=O)OC(C)(C)C)c3ccc(OCc4ccccc4)cc23)C1=O` displayed a melting point of 134 °C.

For `O=C(NCc1cccc(O)c1)c1[nH]c2ccc(Cl)cc2c1S(=O)(=O)c1cccc(Cl)c1`, the melting point lay within 230 to 231 °C.

In turn, `CC(C)[C@H](NC(=O)OCc1ccccc1)C(=O)N[C@@H](Cc1ccccc1)C(=O)C[C@@H]1CCCC[C@H]1C(=O)NC(C)(C)C` came in with a melting point of 186 to 188 °C.

Turning to `Cc1ccccc1CNC(=O)c1ccc2cnccc2n1`, the melting point was 120 to 121 °C.

The molecule `C=Cc1c(C)c2c(c(O)c1C/C=C1\CCCC1CC(=O)O)C(=O)OC2` (centres undefined) showed a melting point of 141 to 142 °C.

For `CC(C)(C)OC(=O)N1CCN(c2ccc3ncc(Br)n3n2)CC1`, the melting point was in the range of 176 to 179 °C.

`CCCCCCCCCCOc1cc(N=Nc2ccccc2)ccc1OCC1CC1`: the melting point lay in the range of 58 to 60 °C.

As to `NC(=O)c1c(N)oc2ccc(Cl)cc2c1=O`, the melting point turned out to be 320 °C.

In turn, `Nc1ncc(-c2ccccc2)nc1Sc1ccc(Cl)cc1` yielded a melting point of 158 to 160 °C.

Turning to `O=C1NCC(c2ccco2)SCC1N1C(=O)c2ccccc2C1=O` (centres undefined), the melting point amounted to 235 °C.

`Cc1ccc2cccc(OCc3c(Cl)ccc(S(=O)(=O)N(C)Cc4cccc(C(=O)O)c4)c3Cl)c2n1`: the melting point came out at 204 °C.

On to `Cc1sc2ccc(Cl)cc2c1C1=NCCN1`, for which the melting point lay within 190 to 192 °C.

`CN1CCCCC1Cn1nc(-c2c(-c3ccccc3)nn3ccccc23)ccc1=O` (centres undefined) came in with a melting point of 154 to 155 °C.

`c1ccc2[nH]c(SCc3cn4ccccc4n3)nc2c1`: the melting point was in the range of 220 to 222 °C.

As to `COC(=O)c1cc(-c2cccc(C3=NC(C)(C)Cc4cc(OC)c5c(c43)CC(C)(C)O5)c2)ccc1NC(C)=O`, the melting point lay in the range of 116 to 119 °C.

`O=[N+]([O-])c1ccc2ccccc2c1NCC12CCCN1CCC2`: the melting point was 88 to 89 °C.

Molecule `CSc1cc2ccc(-c3ccccc3)cc2cc1O` gave a melting point of 149 to 150 °C.

On to `C#CC1(c2ccc(OC)c(OC3CCCC3)c2)CC(=O)C1`, for which the melting point lay within 58 to 59 °C.

For the molecule `O=C1CCCN1c1ccc(CCN2CCN(c3ccccc3Cl)CC2)cc1`, the melting point came out at 132 °C.

In the case of `O=C(Nc1ccc(OCc2ccccc2)cc1)C1CC1`, the melting point turned out to be 162 °C.

As to `Clc1cccc(Cl)c1C1CCN(Cc2[nH]c3ccccc3c2-c2ccccc2)CC1`, the melting point fell in the range of 162 to 164 °C.

`C=C(C)C(=O)N[C@@H](CCC(=O)O)C(=O)O` gave a melting point of 128 to 130 °C.

Take `COc1cc(Oc2ccc(C(=O)N(C3CCCCC3)C3CCCC3)cc2C)cc(OC)c1OC`: the melting point is 181 to 182 °C.

For `ON=Cc1cc(OCC(F)(F)F)ccc1OCc1ccccc1`, the melting point was 93 to 95 °C.

`CC(C)(C)OC(=O)[C@H]1C[C@H](S(=O)(=O)c2ccccc2)[C@@H](c2ccccc2)N1C(=O)CNC(=O)Nc1cccc(C(=O)O)c1` (racemic): the melting point is 213 °C.

With `COc1cc(C(=O)O)ccc1Cn1nc(O)c2ccc(NC(=O)CC3CCCC3)cc21`, the melting point lay in the range of 269 to 272 °C.

On to `COc1ccc(C)cc1NC(=O)Nc1ccc(N2CCN(C(=O)OC(C)(C)C)CC2)cc1C`, for which the melting point fell in the range of 169 to 171 °C.

For `COCCc1nc2c(N)nc3ccccc3c2n1CCOCCN(C)C(=O)N1CCOCC1`, the melting point stood at 122 °C.

`O=C(Cc1cccs1)Nc1cccc2nc(N[C@@H]3CCc4ccccc43)ccc12` showed a melting point of 164 °C.

As to `Cc1ccc(SC2CC(=O)N2CC(=O)NCCCCCCc2ccc(Cl)cc2)cc1` (centres undefined), the melting point was 63 to 65 °C.

`O=C(O)Cc1ccccc1Oc1ccc(C(F)(F)F)cc1[N+](=O)[O-]` showed a melting point of 165 to 167 °C.

Turning to `NC(=O)c1cc(F)c(N[C@H]2CC[C@H](N)CC2)cc1F`, the melting point fell in the range of 209 to 210 °C.

`CCOC(=O)C(C(=O)OCC)(c1ccccc1)N1CCN(CCO)CC1`: the melting point lay within 63 to 64 °C.

In turn, `NC(=NO)C1CCc2ccccc2CC1` registered a melting point of 219 °C.

In turn, `O=C(Nc1ccc(Oc2ccc(CCC(=O)N3CCN(Cc4ccc5c(c4)OCO5)CC3)cc2)nc1)c1ccc(C(F)(F)F)cc1` came in with a melting point of 140 to 141 °C.

In the case of `CN(C)Cc1c(-c2cc(C(C)(C)C)c(O)c(C(C)(C)C)c2)nc2n1CCS2`, the melting point was in the range of 188 to 191 °C.

In turn, `Cc1cn(C(C)C(=O)O)nc1-c1ccccc1` (centres undefined) came in with a melting point of 151 to 162 °C.

`CCOC(=O)N=P(c1ccccc1)(c1ccccc1)c1ccccc1CN1CCCC1` gave a melting point of 120 to 122 °C.

Turning to `CCCCc1ncc(/C=C(\Cc2cccs2)C(=O)O)n1Cc1ccc(C#N)cc1`, the melting point is 190 to 192 °C.

Molecule `CCN1CCC(=O)N(c2c(C)cccc2C)C1=S` returned a melting point of 124 to 126 °C.

On to `CC(=O)Nc1cc(Oc2ccc3c(C(=O)Nc4ccc(N5CCC[C@H](N)C5)c(C(F)(F)F)c4)cccc3c2)ncn1`, for which the melting point lay within 218 to 228 °C.

With `CC(=O)C(=O)N[C@H](CO[N+](=O)[O-])c1ccccc1`, the melting point lay within 76 to 77 °C.

`CCOC(=O)Cc1ccc2c(c1)sc1ccc(Cl)cc12` registered a melting point of 88 to 90 °C.

Turning to `COc1cccc2c1CC(CC=O)C2=O` (racemic), the melting point was 71 °C.

For the molecule `N#Cc1cnc2cc(-c3cc(CN4CCOCC4)c(CN4CCOCC4)s3)ccc2c1Nc1ccc(Cl)cc1Cl`, the melting point lay within 118 to 125 °C.

The molecule `O=C1Nc2ccccc2C1CCCCN1CCN(c2cccc(Cl)c2)CC1` (centres undefined) returned a melting point of 112 to 114 °C.

On to `Cc1cc(O)cnc1Cl`, for which the melting point is 126 to 128 °C.

In the case of `Cc1cc(C)cc(-c2nc(CCl)co2)c1`, the melting point lay within 76 to 77 °C.

In turn, `O=C(Cn1nnnc1-c1ccoc1)OCCO` returned a melting point of 91 to 93 °C.

As to `COC(=O)c1ccc(OC)cc1S(=O)(=O)NC(=O)Nc1nc(C)nc(OC)n1`, the melting point is 183 to 186 °C.

`NS(=O)(=O)c1cc2[nH]c(S)nc2cc1Cl`: the melting point lay in the range of 341 to 343 °C.

`COc1ccc2c(c1)C(=O)c1nc3ccccc3c(=O)n1-2` yielded a melting point of 268 to 269 °C.

Consider `COc1cc2c(cc1OC)CN(CCNc1ccc(NC(=O)c3cccc4c(=O)c5cccc(OC)c5[nH]c34)cc1)CC2`, for which the melting point was in the range of 228 to 234 °C.

`O=C(O)Cn1cccc(O)c1=O` returned a melting point of 203 to 205 °C.

In turn, `Fc1ccccc1-n1c(CN2CCOCC2)nnc1-c1ccc(-c2ccccc2)cc1` had a melting point of 129 to 131 °C.

Molecule `O=C(O)c1ccc(-c2cnc3c(c2)N(Cc2ccccc2OC(F)(F)F)CCN3)cc1` had a melting point of 250 °C.

For the molecule `COCCOC(=O)C1=C(C)NC(C)=C(c2nnco2)C1c1cccc(Cl)c1Cl` (centres undefined), the melting point lay in the range of 190 to 192 °C.

Molecule `CSc1sc(C(N)=O)c2c1-c1nc(C)sc1CC2` had a melting point of 269 to 270 °C.

Regarding `CCCCC(C)OC(=O)Nc1ccc(-c2ncn(-c3ccc(OC(F)(F)F)cc3)n2)cc1` (centres undefined), the melting point was in the range of 111 to 113 °C.

As for `O=C(NC(=S)NC1CCN(Cc2ccc3ccccc3c2)CC1)c1ccccc1`, the melting point lay within 212 to 214 °C.

`O=C(NCCSCc1cccc(F)c1)c1c(Cl)cccc1Cl` had a melting point of 70 to 72 °C.

For `CCNC(=N)NC(=O)Cc1ccccc1OC`, the melting point fell in the range of 127 to 128 °C.

The molecule `C=CCC1Oc2ccccc2-c2c(OC)cc3c(c21)C(C)=CC(C)(C)N3` (centres undefined) showed a melting point of 84 to 86 °C.

`O=C(O)C1(c2ccc(C#Cc3ccccc3)cc2)CC1` displayed a melting point of 214 to 218 °C.

`CC(c1ncncc1Cl)C(O)(Cn1cncn1)c1ccc(F)cc1F` (centres undefined) returned a melting point of 128 °C.

The molecule `CC(=O)N1CCc2cc(Br)cc(N)c21` came in with a melting point of 154 to 155 °C.

As to `Cc1cncc(C)c1-c1c(C)cc(C=Cc2cc(C(C)(C)C)c(O)c(C(C)(C)C)c2)cc1C`, the melting point lay within 234 to 235 °C.

`CCNC(=O)NCC1=C(n2ccccc2=O)c2cc([N+](=O)[O-])ccc2OC1(C)C` had a melting point of 197 °C.

On to `COc1c(C)c(-c2ccccc2)nn1N`, for which the melting point lay in the range of 92 to 94 °C.

The molecule `COC1=CC(Cl)(OC)NC(C(O)CC(=O)Nc2ccccc2)=N1` (centres undefined) yielded a melting point of 121 to 123 °C.

`COc1ccc2[nH]cc(CC(=O)N3CCN(c4ccc([N+](=O)[O-])cc4)CC3)c2c1` displayed a melting point of 239 to 240 °C.

Consider `COc1cc(-c2ccc(O)c(C3(C)CCCCC3)c2)cc(CC2SC(N3CCCC3)=NC2=O)c1OC` (centres undefined), for which the melting point lay in the range of 227 to 230 °C.

`c1cnc2scc(Nc3ccncc3)c2c1` yielded a melting point of 200 to 204 °C.

Consider `Cc1nc(N2C(=O)CN(c3ccc(F)cc3)C2=O)sc1C(=O)NCc1ccccc1`, for which the melting point lay in the range of 217 to 219 °C.

Turning to `CC(=O)N1C(C(=O)O)CSC1C(C)c1ccc(CC(C)C)cc1` (centres undefined), the melting point was 150 to 153 °C.

For `COc1cc(CCI)cc(OC)c1`, the melting point was 30 to 33 °C.

In turn, `Cc1oc(-c2ccccc2)nc1COc1ccc(CO)nc1` showed a melting point of 125 to 126 °C.

The molecule `O=C(O)CN(CC(=O)O)CC(=O)Nc1c(F)c(F)c(F)c(F)c1F` yielded a melting point of 182 to 183 °C.

With `COC(=O)CC(=O)Nc1cccc(COc2ccc(C(C)=O)c(OC)c2)c1`, the melting point lay within 93.5 to 96.5 °C.

`CSc1ccc(C(=O)c2cc(-c3cccnc3)c(N3CCOCC3)s2)cc1` had a melting point of 127 °C.

Turning to `Cc1[nH]c(=O)[nH]c1C(N)=O`, the melting point was over 300 °C.

In turn, `CCOC(=O)c1c(N2CCN(C(=O)c3cccs3)CC2)c2cccnc2[nH]c1=O` had a melting point of 239 °C.

Take `CC(C)(C)OC(=O)NCC(=O)Nc1ccc(O)cc1`: the melting point lay within 152 to 154 °C.

As for `CC(C)(C)OC(=O)N1CC[C@H](CNCc2ccccc2)[C@@H](O)C1`, the melting point stood at 91 °C.
